This is an account of results in publication PMC10820527, “Synthesis, Characterization, and Investigation of Anti-Inflammatory and Cytotoxic Activities of Novel Thiourea Derivatives of Naproxen” (Pharmaceutics, 2023).

One series concerns HCT 116. Description: MTT cytotoxicity assay, HCT 116. It counts as cell-based, human. The conditions noted are these: for IC50: mean ± SD. The protocol: (§1) Three cancer cell lines (MDA-MB-231, HCT116 and HeLa; i.e., human breast cancer cells, human colorectal cancer cells, and human cervical cancer cells, respectively), and one non-malignant fibroblast MRC-5 cell line (control) were used in this study. The American Type Cell Collection (ATCC, Manassas, VA, USA) provided all examined cell lines. The cells were grown in a complete medium made up of high-glucose DMEM media supplemented with 10% fetal bovine serum and […] L-glutamine (both from Sigma-Aldrich, USA). The cells were cultured in 25 cc flasks (Thermo Fischer Scientific, Waltham, MA, USA) at 37 °C with 100% humidity in a 5% CO2 atmosphere.
(§2) The MTT test was used to assess the cytotoxicity of compounds 1–14 [44]. The cytotoxicity of naproxen was also investigated due to its clinical use and structural similarity. Throughout the exponential development period, cells were taken from culture flasks and counted, and 5 × 10^3 cells/well were planted into 96-well culture plates. Following that, the cell lines were treated with varying doses of the investigated chemicals (1–14), naproxen ([…]), and fresh complete media as a control. All evaluated cells were incubated for 24, 48, and 72 h at 37 °C in an environment containing 5% CO2 and 100% humidity. Following incubation, each well’s culture media was taken out, each well received an addition of MTT solution at a final concentration of 0.5 mg/mL, and the cells were left to incubate for an additional four hours. The MTT solution was then withdrawn carefully, and the formazan crystals were dissolved in DMSO. After shaking the plates for 10 min, absorbance at 595 nm was measured using a multiplate reader (Zenyth 3100, Anthos Labtec Instruments, Salzburg, Austria). All concentrations of the tested compounds were performed in three separate wells of the microtiter plates and in three separate experiments. The results were reported as a ratio to the control value, untreated cells. IC50 values were also determined using Microsoft Office Excel 2021. The percentage of viable cells was estimated by dividing the readout absorbance value in the wells containing treated cells by the average absorbance value measured in the wells containing untreated cells, and multiplying the result by 100 [44]. % of the viable cells = ((absorbance of treated cell-absorbance of blank)/(absorbance of untreated cell-absorbance of blank)) × 100(3)

The subject of the next series is HeLa. Briefly: MTT cytotoxicity assay, HeLa. The format is cell-based, human. To be noted: mean ± SD. The protocol:
as §1, §2

The subject of another series is MDA-MB-231. Description: MTT cytotoxicity assay, MDA-MB-231. The format is cell-based, human. To be noted: mean ± SD. As for the experimental part: as §1, §2
Another series deals with T1, 5-LOX (Homo sapiens, UniProt P09917).
T1 construct: purchased Abcam
T1 sequence (P09917 1-674): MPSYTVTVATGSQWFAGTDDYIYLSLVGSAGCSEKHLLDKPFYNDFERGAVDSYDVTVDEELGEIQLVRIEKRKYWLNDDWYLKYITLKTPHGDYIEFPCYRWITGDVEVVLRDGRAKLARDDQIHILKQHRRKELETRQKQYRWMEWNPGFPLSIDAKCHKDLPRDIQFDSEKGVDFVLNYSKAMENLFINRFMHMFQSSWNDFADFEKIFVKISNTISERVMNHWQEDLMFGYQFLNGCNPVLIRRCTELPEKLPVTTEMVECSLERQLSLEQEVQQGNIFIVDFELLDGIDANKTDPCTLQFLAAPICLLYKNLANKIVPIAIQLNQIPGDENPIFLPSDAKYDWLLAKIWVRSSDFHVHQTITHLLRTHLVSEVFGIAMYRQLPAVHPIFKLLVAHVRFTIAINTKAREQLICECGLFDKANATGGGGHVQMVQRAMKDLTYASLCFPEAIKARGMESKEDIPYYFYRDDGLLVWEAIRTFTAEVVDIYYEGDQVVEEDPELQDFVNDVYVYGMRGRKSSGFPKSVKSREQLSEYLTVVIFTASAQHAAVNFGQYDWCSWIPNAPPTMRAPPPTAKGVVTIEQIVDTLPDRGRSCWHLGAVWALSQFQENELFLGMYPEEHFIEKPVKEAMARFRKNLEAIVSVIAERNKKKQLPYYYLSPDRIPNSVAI
The arrangement: method as in PMID 37242450. The conditions noted are these: among compounds 1–5, previously published study ref 37; cited from earlier work.

Series [1] concerns MRC-5 fibroblast cell line. Briefly: MTT cytotoxicity assay, MRC-5. The format is cell-based. The conditions noted are these: for IC50: mean ± SD. The protocol: as §1, §2
Series [2] deals with carrageenan-induced rat paw edema. Briefly: Carrageenan-induced rat paw edema model. To be noted: for Rat Paw Thickness: mean ± SD; for inhibition in vivo at 2.5 mg/kg / inhibition in vivo at 5 mg/kg / inhibition in vivo at 10 mg/kg: Rattus norvegicus. The format is in vivo. The protocol:
The Carrageenan-induced rat paw edema model was used to assess the anti-inflammatory potential of novel compounds 8–14. Induction of inflammation was performed in all animals by intraplantar injection of […] 0.5% carrageenan saline into the left hind paw.
Animals (n = 200) were randomly divided into the following groups: control groups, that received either 1% DMSO or naproxen, and experimental groups, that received the novel compounds 8–14.
Control groups included DMSO and naproxen groups. Rats belonging to the DMSO group received 1% DMSO in the same volume as the compounds 8–14, 60 min before carrageenan injection. Moreover, naproxen groups included rats that were subjected to naproxen treatment in three doses: 2.5 mg/kg, 5 mg/kg, and 10 mg/kg. Naproxen was applied in the same manner as 1% DMSO.
Experimental groups included rats that were treated with compounds 8–14 and they were divided into three subgroups depending on the applied dose: 2.5 mg/kg, 5 mg/kg, and 10 mg/kg. The examined compounds were dissolved in 1% DMSO prior to treatment and applied to rats 60 min before inducing inflammation, i.e., before carrageenan injection. Doses of naproxen and investigated compounds were defined based on our previously published research.
In order to quantify the anti-inflammatory effects of the tested compounds, left paw thickness was measured at specific time points: prior to inflammation induction (moment 0) and 1, 2, 3, and 4 h (moments 1, 2, 3, and 4) following carrageenan injection. Tissue thickness was measured in the middle of the rat paw using a Digital Vernier caliper (Aerospace, China). The percentage of inhibition of paw edema after treatment with different agents was calculated according to the formula, Equation (2):% Inhibition = 100 × [1 − (Yt/Yc)](2) where Yt = average increase in paw thickness in the treated group of rats between two measurement moments, and Yc = average increase in paw thickness in the untreated group of rats between two measurement moments.

The subject of series [3] is MCF-7, MDA-MB-231, HeLa, and HCT-116. The conditions noted are these: cited from earlier work.
[4] abbreviates: read-out: IC50 (cytotoxic activity of reference drugs), range over MCF-7, MDA-MB-231, HeLa, and HCT-116.

Structures are written as SMILES. Where two headings read alike, the source gives them in different places.

As for `COc1cccc(NC(=S)NC(=O)[C@@H](C)c2ccc3cc(OC)ccc3c2)c1` [Compound 4], the “Cytotoxic effect against the HCT 116 cell line (in words)” value in the series with HCT 116 is given as “moderate cytotoxic effects”. The half-maximal inhibitory concentration (IC50) in the series with HCT 116 (48 h) was 106 ± 12.9 µM; in the series with HCT 116 (72 h), 71.6 ± 9.9 µM; in the series with HeLa (24 h), greater than 200 µM; in the series on HeLa (48 h), 101 ± 12.2 µM; with HeLa (72 h), 90.8 ± 8.3 µM; with MDA-MB-231 (24 h), greater than 200 µM. Also, the concentration for half-maximal inhibition (IC50) in the series with MDA-MB-231 (48 h) is greater than 200 µM; in the series on MDA-MB-231 (72 h) it was 110 ± 12.9 µM; in series [1] (24 h) it was greater than 200 µM; in series [1] (48 h), greater than 200 µM; in series [1] (72 h), greater than 200 µM. For the same molecule, the “5-LOX inhibition (in words)” value on 5-LOX is given as “strongest 5-LOX inhibition”.

Turning to `COc1ccc2cc([C@H](C)C(=O)O)ccc2c1` [Naproxen, naproxen], the “Rat Paw Thickness” value in series [2] (2.5 mg/kg, 1 h after carrageenan) stood at 6.35 ± 0.15 mm; in series [2] (2.5 mg/kg, 2 h after carrageenan), 6.02 ± 0.15 mm; in series [2] (2.5 mg/kg, 3 h after carrageenan), 5.75 ± 0.20 mm; in series [2] (2.5 mg/kg, 4 h after carrageenan), 5.18 ± 0.20 mm; in series [2] (5.0 mg/kg, 1 h after carrageenan), 6.02 ± 0.20 mm; in series [2] (5.0 mg/kg, 2 h after carrageenan), 5.52 ± 0.30 mm. Further, the “Rat Paw Thickness” value in series [2] (5.0 mg/kg, 3 h after carrageenan) was found to be 5.22 ± 0.30 mm; in series [2] (5.0 mg/kg, 4 h after carrageenan) it was 4.98 ± 0.24 mm; in series [2] (10.0 mg/kg, 1 h after carrageenan) it was 5.88 ± 0.23 mm; in series [2] (10.0 mg/kg, 2 h after carrageenan), 5.55 ± 0.45 mm; in series [2] (10.0 mg/kg, 3 h after carrageenan), 5.35 ± 0.32 mm; in series [2] (10.0 mg/kg, 4 h after carrageenan), 4.95 ± 0.35 mm. Besides, the inhibition in vivo at 2.5 mg/kg in series [2] (2.5 mg/kg, 1 h) was 19.7%; in series [2] (2.5 mg/kg, 2 h), 25.8%; in series [2] (2.5 mg/kg, 3 h) it was 26.1%; in series [2] (2.5 mg/kg, 4 h) it was 46.7%. Besides, the inhibition in vivo at 5 mg/kg in series [2] (5.0 mg/kg, 1 h) was 27.9%; in series [2] (5.0 mg/kg, 2 h), 42.4%; in series [2] (5.0 mg/kg, 3 h), 47.7%; in series [2] (5.0 mg/kg, 4 h), 51.1%. Also, the inhibition in vivo at 10 mg/kg in series [2] (10.0 mg/kg, 1 h) is 36.1%; in series [2] (10.0 mg/kg, 2 h), 43.9%; in series [2] (10.0 mg/kg, 3 h) it was 45.9%; in series [2] (10.0 mg/kg, 4 h), 57.8%. For the same molecule, the IC50 is greater than 200 µM with HCT 116 (Homo sapiens, HCT-116, 24 h); greater than 200 µM in the series on HCT 116 (Homo sapiens, HCT-116, 48 h); greater than 200 µM in the series with HCT 116 (Homo sapiens, HCT-116, 72 h); greater than 200 µM with HeLa (Homo sapiens, HeLa, 24 h); greater than 200 µM in the series on HeLa (Homo sapiens, HeLa, 48 h); greater than 200 µM in the series with HeLa (Homo sapiens, HeLa, 72 h). Also, the half-maximal inhibitory concentration (IC50) with MDA-MB-231 (Homo sapiens, MDA-MB-231, 24 h, 24 h) is greater than 200 µM; in the series on MDA-MB-231 (Homo sapiens, MDA-MB-231, 48 h, 48 h), greater than 200 µM; in the series on MDA-MB-231 (Homo sapiens, MDA-MB-231, 72 h, 72 h), greater than 200 µM; in series [1] (Homo sapiens, MRC5, 24 h) it was greater than 200 µM; in series [1] (Homo sapiens, MRC5, 48 h) it was greater than 200 µM; in series [1] (Homo sapiens, MRC5, 72 h), greater than 200 µM. The “Effect on the viability of the MRC-5 fibroblast cell line (in words)” value in series [1] is “insignificant effect”.

As to `CN(C)C/C=C/C(=O)Nc1cc2c(Nc3ccc(F)c(Cl)c3)ncnc2cc1O[C@H]1CCOC1` [afatinib], the IC50 in series [3] was 6.2 to 11.4 µM.

On to `Cc1ccc(-c2cc(C(F)(F)F)nn2-c2ccc(S(N)(=O)=O)cc2)cc1` [celecoxib], for which, in series [3] (setting [4]), the IC50 is 22.8 to 42.7 µM.

Consider `COc1cccc2c1C(=O)c1c(O)c3c(c(O)c1C2=O)C[C@@](O)(C(=O)CO)C[C@@H]3O[C@H]1C[C@H](N)[C@H](O)[C@H](C)O1` [doxorubicin], for which the half-inhibitory concentration (IC50) in series [3] (setting [4]) is 3.18 to 26.8 µM.
